Experimental findings from ChEMBL document CHEMBL1201862, “PubChem BioAssay data set” (2004) are described below.

Molecules are shown by their SMILES. The source made the active and inactive calls.

Assay [1] has as its system Streptococcus sp. 'group A'. Description: growth inhibition of control SK(-) GAS strain, dose response, counter-screen for streptokinase expression inhibitor project, luminescence, kanamycin, BacTiterGlo, confirmation (AID 1900). In kind it is functional, organism-based. In general terms: Counterscreens check selectivity or assay interference.
In assay [2] the test system is Streptococcus. The experiment in a line: Luminescence Microorganism-Based Dose Response Follow up to Identify Compounds Cytotoxic to Streptococcus. [Related pubchem assays: 1677 (Project Summary), 1915, 1914, 1902 (Retest at Dose), 1900 (Counter Screen), 1662 (Primary HTS)]. In kind it is functional, organism-based.
For the next assay, the target named is T1, Streptokinase A (Streptococcus pyogenes serotype M1, UniProt P10520).
T1 sequence (P10520 whole entry): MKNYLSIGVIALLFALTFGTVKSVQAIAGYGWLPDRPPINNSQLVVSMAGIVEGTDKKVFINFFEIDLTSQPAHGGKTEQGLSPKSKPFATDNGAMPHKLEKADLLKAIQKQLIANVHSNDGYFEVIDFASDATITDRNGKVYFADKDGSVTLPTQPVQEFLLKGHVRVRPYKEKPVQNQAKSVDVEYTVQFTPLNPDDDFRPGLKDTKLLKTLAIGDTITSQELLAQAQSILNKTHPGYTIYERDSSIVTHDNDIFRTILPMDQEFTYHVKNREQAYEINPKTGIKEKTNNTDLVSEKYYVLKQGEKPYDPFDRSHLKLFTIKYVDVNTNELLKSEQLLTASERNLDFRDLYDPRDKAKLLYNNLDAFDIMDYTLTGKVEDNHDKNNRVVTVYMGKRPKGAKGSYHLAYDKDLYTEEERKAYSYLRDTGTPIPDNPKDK
The experiment in a line: S. pyogenes streptokinase expression inhibitors, potency, dose response, plasminogen activation absorbance, OD405 (AID 1914).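 Further: secreted streptokinase activity via plasminogen activation per viability signal from cell pellet.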 In kind it is functional, Streptococcus pyogenes M1 GAS.

For assay [3], the system named is Streptococcus. Description: Group A Streptococcus viability loss, dose response, counter-screen for streptokinase expression inhibitor project, luminescence, BacTiterGlo (AID 1915).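 Further: potency for reduction of bacterial viability or growth.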 In kind it is functional, organism-based.
In assay [4] the target is Transitional endoplasmic reticulum ATPase (Homo sapiens, UniProt P55072, C522A). The experiment in a line: C522A mutant p97 ATPase inhibitors, dose response, counter-screen for p97 inhibitor project, biochemical, luminescence (AID 1544).
The target of assay [5] is Transitional endoplasmic reticulum ATPase (Homo sapiens, UniProt P55072). The experiment in a line: p97 ATPase inhibitors, dose response, biochemical (AID 1534).
Chain of Transitional endoplasmic reticulum ATPase (Homo sapiens, UniProt P55072) (P55072 whole entry): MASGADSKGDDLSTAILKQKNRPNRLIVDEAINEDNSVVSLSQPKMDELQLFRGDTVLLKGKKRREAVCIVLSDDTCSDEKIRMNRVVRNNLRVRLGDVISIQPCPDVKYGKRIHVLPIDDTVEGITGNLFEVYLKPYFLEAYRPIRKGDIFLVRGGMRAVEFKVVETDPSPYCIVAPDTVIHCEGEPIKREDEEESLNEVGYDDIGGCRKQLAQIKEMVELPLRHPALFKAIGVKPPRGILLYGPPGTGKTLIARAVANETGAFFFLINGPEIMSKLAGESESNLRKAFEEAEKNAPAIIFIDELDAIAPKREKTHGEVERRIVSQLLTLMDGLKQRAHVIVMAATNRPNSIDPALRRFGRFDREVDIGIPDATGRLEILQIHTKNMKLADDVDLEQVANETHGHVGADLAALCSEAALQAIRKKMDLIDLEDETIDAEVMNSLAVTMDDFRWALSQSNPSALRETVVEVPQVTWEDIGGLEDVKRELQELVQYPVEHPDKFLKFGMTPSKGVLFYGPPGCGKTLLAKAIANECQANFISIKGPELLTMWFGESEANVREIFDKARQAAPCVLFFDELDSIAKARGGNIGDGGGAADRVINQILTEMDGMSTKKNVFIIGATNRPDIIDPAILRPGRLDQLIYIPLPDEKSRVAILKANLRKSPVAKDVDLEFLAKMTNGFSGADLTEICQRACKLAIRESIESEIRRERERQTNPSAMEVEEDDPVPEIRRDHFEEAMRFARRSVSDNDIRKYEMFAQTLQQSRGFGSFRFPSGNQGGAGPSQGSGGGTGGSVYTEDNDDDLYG
Assay [6] deals with Induced myeloid leukemia cell differentiation protein Mcl-1 (Homo sapiens, UniProt Q07820). In kind it is functional.
Chain of Induced myeloid leukemia cell differentiation protein Mcl-1 (Q07820 whole entry): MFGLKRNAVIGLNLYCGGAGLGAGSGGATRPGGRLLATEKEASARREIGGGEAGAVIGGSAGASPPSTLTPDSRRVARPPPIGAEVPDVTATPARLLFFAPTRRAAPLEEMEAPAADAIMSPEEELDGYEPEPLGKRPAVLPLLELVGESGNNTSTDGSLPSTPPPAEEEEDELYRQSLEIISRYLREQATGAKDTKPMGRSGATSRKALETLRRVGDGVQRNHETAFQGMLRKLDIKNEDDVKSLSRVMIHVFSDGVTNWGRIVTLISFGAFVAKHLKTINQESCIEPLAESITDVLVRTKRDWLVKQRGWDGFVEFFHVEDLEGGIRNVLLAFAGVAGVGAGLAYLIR
In another assay the target is Beta-galactosidase (Escherichia coli, UniProt Q8VNN2). Description: beta-galactosidase enzyme inhibitors and activators, dose response, artefact control for CCR6 antagonist project, biochemical, E. coli enzyme, set 3 (AID 504712). The format is functional.
For assay [7], the system named is BJ. Description: cytotoxicity toward BJ-TERT fibroblasts, dose response, cell-based, RAS-independent, luminescence (AID 1933). The format is functional. The settings on record: Homo sapiens.
Assay [8] concerns BJ. The experiment in a line: cells. In kind it is functional, cell-based. The settings on record: Homo sapiens.
Assay [9] addresses Luciferin 4-monooxygenase (Photinus pyralis, UniProt P08659). Description: firefly luciferase enzyme inhibitors, dose response, biochemical, luminescence (AID 1891).
A short description of assay [10]: Luminescence Cell-Based Dose Confirmation HTS to Identify Inhibitors of Platelet Dense Granule Release. [Related pubchem assays: 1663 (Primary HTS), 1678 (Summary of Project)]. In kind it is functional.
For assay [11], the system named is BJ. The experiment in a line: cytotoxicity toward BJ-TERT-LT-ST fibroblasts, dose response, cell-based, RAS-independent, luminescence (AID 1935).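 Further: BJ fibroblasts immortalized with TERT plus LT and ST oncogenes.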 The settings on record: Homo sapiens. The format is functional.
Assay [12] can be described thus: cytotoxicity toward DRD oncogenic fibroblasts, dose response, cell-based, non-viral oncogenic, luminescence (AID 1934). The format is functional. The settings on record: Homo sapiens.
Assay [13] addresses Glucose-6-phosphate 1-dehydrogenase (Homo sapiens, UniProt P11413). The experiment in a line: human G6PD enzyme inhibitors, dose response, selectivity assay for P. falciparum G6PD inhibitor project, biochemical, fluorescence (AID 504792). The format is functional.
Assay [14] in a line: inhibition of ADP-Glo detection reagents, dose response, artefact control for CDK5 inhibitor project, biochemical, luminescence, cherry-picked samples, set 2 (AID 504546). In kind it is functional. In general terms: ADP-Glo first removes unused ATP, then detects ADP through luciferase.
Assay [15] deals with Cyclin-dependent kinase 5/CDK5 activator 1 (Homo sapiens, UniProt Q00535). Description: CDK5/p35 kinase inhibitors, dose response, biochemical, cherry-picked samples, set 2 (AID 504545).
Chain of Cyclin-dependent kinase 5/CDK5 activator 1 (Q00535 whole entry): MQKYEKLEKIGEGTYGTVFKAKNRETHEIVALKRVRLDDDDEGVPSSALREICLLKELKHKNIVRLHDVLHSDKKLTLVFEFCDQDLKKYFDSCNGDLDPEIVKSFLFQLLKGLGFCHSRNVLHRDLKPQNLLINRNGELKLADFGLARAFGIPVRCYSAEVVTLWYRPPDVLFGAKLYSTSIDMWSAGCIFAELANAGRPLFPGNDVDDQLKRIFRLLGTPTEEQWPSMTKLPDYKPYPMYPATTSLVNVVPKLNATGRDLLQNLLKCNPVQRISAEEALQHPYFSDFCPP
Chain of Cyclin-dependent kinase 5/CDK5 activator 1 (Q15078 whole entry, further chain): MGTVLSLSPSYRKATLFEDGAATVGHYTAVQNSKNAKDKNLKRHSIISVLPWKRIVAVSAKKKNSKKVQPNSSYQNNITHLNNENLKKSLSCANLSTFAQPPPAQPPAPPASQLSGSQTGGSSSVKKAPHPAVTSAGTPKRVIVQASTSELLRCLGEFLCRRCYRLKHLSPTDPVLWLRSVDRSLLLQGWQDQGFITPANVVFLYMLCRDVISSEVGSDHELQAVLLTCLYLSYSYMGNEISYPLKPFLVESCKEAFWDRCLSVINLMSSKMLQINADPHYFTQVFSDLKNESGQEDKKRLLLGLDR
The subject of the next assay is HEK293. The experiment in a line: inhibitors of LMP1-driven NF-kB reporter, dose response, cell-based, HEK293, luciferase, cherry-pick (AID 588343). In kind it is functional. The settings on record: Homo sapiens.
The next assay has as its system INS1. Description: beta cell apoptosis inhibitors, cytokine rescue, dose response, luminescence, retest (AID 449756).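 Further: cell death triggered by IL-1 beta plus TNF-alpha plus IFN-gamma mixture; protective hits raise ATP signal compared with cytokine alone wells.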 In kind it is functional, cell-based. The settings on record: Rattus norvegicus.
The next assay deals with CAAX prenyl protease 2 (Homo sapiens, UniProt Q9Y256). Description: human Rce1 protease inhibitors, dose response, biochemical, yeast membranes, quenched-peptide fluorescence, cherry-pick (AID 588849).
Chain of CAAX prenyl protease 2 (Q9Y256 whole entry): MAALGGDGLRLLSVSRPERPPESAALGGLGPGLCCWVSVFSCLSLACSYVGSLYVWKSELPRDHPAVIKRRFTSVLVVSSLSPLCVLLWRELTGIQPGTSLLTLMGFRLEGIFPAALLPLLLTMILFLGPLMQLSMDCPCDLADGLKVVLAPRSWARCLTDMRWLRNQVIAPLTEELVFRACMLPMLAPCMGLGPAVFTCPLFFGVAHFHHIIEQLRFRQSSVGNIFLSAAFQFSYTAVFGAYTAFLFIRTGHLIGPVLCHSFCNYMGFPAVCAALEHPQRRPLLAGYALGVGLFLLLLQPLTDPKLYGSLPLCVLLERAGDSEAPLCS
For a further assay, the target named is Paired box protein Pax-8 (Homo sapiens, UniProt Q06710). Description: inhibitors of PAX8-driven TPO luciferase reporter, dose response, RMG-I cells, cherry-pick (AID 687027).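 Further: luciferase reporter driven by Pax8 target thyroperoxidase promoter measured by SteadyGlo luminescence.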 In kind it is functional, cell-based. For orientation: Reporter assays use an easily measured gene product as a stand-in for the process of interest.
Chain of Paired box protein Pax-8 (Q06710 whole entry): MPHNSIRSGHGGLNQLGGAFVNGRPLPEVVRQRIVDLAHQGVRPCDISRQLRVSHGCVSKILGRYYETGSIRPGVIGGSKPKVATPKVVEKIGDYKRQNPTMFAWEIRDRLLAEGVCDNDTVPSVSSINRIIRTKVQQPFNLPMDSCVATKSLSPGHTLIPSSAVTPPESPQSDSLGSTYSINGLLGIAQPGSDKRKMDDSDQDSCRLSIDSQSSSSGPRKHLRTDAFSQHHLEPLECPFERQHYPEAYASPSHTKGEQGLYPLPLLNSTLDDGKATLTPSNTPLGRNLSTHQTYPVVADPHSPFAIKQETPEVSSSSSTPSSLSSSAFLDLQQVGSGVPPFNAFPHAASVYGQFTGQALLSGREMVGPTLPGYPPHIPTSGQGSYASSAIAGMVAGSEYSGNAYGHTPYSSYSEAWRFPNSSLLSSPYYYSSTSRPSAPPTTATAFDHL
The nature of assay [16]: non-specific cell cytotoxicity, dose response, cytotoxicity control for PAX8 inhibitor project, plate reader, dry powder samples (AID 743021). In kind it is functional, cell-based.
The next assay has as its target Aminopeptidase N (Plasmodium falciparum FcB1/Columbia, UniProt O96935). The experiment in a line: P. falciparum M1AAP inhibitors, biochemical, fluorogenic H-Leu-NHMec substrate, 1536-well (AID 1445). Also noted: species or system Plasmodium falciparum 3D7, 3D7.
In assay [17] the target is T2, Long-chain-fatty-acid--AMP ligase FadD28 (Mycobacterium tuberculosis, UniProt P9WQ59).
T2 sequence (P9WQ59 whole entry): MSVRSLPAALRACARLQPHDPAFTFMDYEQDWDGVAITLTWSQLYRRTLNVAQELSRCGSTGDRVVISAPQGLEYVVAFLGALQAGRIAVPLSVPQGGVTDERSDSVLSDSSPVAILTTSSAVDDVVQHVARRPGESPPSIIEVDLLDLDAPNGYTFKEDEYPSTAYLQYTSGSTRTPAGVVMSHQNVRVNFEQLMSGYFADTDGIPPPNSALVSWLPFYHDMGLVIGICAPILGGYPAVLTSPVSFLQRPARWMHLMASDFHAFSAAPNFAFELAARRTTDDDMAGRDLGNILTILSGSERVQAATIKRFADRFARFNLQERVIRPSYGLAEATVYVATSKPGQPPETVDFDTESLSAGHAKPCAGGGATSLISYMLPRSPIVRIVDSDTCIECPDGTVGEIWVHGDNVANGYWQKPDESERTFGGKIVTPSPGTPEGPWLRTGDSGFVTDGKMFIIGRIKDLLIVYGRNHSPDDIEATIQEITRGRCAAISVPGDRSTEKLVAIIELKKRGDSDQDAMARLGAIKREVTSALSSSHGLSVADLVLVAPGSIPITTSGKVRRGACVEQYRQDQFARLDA
The experiment in a line: Fluorescence polarization aasay to screen for inhibitors that compete for the binding of FadD28 to a bisubstrate Measured in Biochemical System Using Plate Reader - 2147-01_Inhibitor_Dose_CherryPick_Activity. In kind it is functional, Mycobacterium tuberculosis H37Rv.

For another assay, the target named is T3, Aspartyl aminopeptidase (Plasmodium falciparum 3D7, UniProt Q8I2J3).
T3 sequence (Q8I2J3 whole entry): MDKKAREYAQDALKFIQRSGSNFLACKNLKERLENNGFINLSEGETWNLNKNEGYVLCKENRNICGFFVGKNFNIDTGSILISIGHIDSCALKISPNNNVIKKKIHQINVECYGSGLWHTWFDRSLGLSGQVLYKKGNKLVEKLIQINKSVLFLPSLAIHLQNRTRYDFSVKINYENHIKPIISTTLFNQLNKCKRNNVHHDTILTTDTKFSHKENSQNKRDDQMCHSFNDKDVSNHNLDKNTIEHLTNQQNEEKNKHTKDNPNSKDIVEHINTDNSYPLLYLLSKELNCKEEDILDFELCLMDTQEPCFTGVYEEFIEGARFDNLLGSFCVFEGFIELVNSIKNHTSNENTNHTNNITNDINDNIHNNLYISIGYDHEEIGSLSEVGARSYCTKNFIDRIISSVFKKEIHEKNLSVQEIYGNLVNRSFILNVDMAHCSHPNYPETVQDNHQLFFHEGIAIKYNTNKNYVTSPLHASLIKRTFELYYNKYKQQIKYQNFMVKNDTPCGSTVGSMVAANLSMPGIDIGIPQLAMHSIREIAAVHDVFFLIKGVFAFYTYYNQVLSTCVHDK

A further assay addresses Procathepsin L (Homo sapiens, UniProt P07711).

Chain of Aminopeptidase N (O96935 whole entry): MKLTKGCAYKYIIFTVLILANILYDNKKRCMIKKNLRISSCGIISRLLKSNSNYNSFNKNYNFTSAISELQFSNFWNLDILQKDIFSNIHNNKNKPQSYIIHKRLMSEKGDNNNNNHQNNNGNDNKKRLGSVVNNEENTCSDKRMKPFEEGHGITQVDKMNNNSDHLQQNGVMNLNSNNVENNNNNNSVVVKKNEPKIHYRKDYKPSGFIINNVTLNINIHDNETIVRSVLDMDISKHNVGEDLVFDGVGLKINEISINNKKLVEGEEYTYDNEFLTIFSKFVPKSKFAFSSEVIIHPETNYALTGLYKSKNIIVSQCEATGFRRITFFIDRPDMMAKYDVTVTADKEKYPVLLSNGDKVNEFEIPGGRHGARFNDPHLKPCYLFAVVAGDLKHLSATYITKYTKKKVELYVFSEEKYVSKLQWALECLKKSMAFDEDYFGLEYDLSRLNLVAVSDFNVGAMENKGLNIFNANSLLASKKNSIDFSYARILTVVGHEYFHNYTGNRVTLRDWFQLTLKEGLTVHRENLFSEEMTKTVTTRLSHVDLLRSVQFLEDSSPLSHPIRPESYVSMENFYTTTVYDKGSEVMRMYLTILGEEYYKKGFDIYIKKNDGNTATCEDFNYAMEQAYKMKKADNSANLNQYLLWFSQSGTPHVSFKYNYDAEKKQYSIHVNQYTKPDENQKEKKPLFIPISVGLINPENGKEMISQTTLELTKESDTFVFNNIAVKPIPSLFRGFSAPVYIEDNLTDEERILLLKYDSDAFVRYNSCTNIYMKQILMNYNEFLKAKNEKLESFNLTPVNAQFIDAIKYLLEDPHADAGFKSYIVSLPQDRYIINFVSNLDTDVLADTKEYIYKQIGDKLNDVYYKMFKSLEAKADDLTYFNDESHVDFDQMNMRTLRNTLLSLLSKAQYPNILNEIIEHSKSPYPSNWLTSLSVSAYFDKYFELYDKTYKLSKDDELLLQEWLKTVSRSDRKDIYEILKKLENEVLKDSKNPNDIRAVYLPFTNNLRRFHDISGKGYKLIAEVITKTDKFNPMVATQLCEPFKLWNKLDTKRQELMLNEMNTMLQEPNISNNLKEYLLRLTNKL
Chain of Glucose-6-phosphate 1-dehydrogenase (P11413 whole entry): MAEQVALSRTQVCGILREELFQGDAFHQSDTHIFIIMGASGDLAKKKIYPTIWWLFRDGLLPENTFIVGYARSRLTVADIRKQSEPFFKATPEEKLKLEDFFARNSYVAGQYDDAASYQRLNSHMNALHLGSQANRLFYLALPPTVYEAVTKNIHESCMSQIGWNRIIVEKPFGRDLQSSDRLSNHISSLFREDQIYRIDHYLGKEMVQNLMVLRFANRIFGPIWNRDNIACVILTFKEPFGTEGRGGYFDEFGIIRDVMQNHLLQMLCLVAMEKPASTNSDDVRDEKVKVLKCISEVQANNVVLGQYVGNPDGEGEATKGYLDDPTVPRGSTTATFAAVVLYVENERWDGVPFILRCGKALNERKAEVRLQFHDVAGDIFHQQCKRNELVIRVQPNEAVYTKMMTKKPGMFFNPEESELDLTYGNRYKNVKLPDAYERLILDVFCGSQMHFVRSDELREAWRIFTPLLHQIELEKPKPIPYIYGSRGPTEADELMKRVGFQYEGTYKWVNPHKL
Chain of Procathepsin L (P07711 whole entry): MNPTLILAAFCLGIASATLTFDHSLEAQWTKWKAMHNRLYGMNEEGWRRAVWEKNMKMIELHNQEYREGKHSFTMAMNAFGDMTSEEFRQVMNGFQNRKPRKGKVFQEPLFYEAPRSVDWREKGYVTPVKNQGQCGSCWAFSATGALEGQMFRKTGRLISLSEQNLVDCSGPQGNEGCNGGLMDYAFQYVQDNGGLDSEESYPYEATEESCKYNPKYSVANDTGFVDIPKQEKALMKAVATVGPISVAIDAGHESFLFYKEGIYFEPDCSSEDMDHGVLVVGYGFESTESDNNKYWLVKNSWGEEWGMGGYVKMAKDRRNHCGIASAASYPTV

Consider `Clc1cccc(Cl)c1CSc1nnc(/C=C/c2ccccc2)o1`, for which the EC50 in assay [1] was 28.8 µM (active); with Streptococcus [2], > 500 µM (not active); on Streptokinase A it was 4.01 µM (active); in the assay on Streptococcus [3] it was > 150 µM (not active).

Turning to `O=C1NC(=S)S/C1=C\c1c(-c2ccccc2)[nH]c2ccccc12`, the IC50 in [4] is > 50 µM (not active); in [5] it was > 50 µM (not active); in assay [6] it was 4.97 µM (active); on Beta-galactosidase, > 66.6 µM (inactive).

In the case of `COc1ccc(/C=C/c2nc3ccccc3n2C)cc1`, the EC50 in the assay on BJ [7] was 9.33 µM (active); with BJ [8], 7.64 µM (active); in [9] it was 0.747 µM (active); in assay [10], 1.01 µM (active); in the assay with BJ [11] it was > 150 µM (inconclusive); in assay [12], 7.64 µM (active). In assay [13], the IC50 is > 80 µM (inactive). The AC50 in assay [14] is 27 µM (active); in assay [15] it was 16.4 µM (active); with HEK293, 0.997 µM (active); in the assay on INS1 it was 4.95 µM (active); at CAAX prenyl protease 2, 7.09 µM (active); at Paired box protein Pax-8, 6.69 µM (active). For the same molecule, in [16], the AC50 is 5.95 µM (active).

For the molecule `NS(=O)(=O)c1ccc(Nc2nc3ccccc3nc2NS(=O)(=O)c2cccc([N+](=O)[O-])c2)cc1`, the IC50 on Aminopeptidase N is 42.9 µM (active). The AC50 in assay [17] was 53 µM (active).

As for `Cc1ccc(N2C(=O)/C(=C\Nn3cnnc3)c3ccccc3C2=O)cc1`, the figures for the IC50 on Aspartyl aminopeptidase and against Procathepsin L were 1.95 µM (active) and > 59.6 µM (not active), respectively.

The EC50 is the concentration needed to bring the measured effect to its halfway point. Usually IC50 stands for the midpoint of a concentration-inhibition curve. As usually defined, the AC50 is the midpoint of the concentration-response curve, whichever way the signal moves.
